Measurements from US20230048576A1, “COMPOUNDS FOR THE TREATMENT OF NEUROPATHIC PAIN” (City of Hope, priority 2019, published 2023).
Converted amounts (≈) assume the structure as drawn. “And” between values parts separate entries of the source, which are not always exact repeats. Equal entries are not always repeated. “Also recorded” adds a separate entry of the source. Marks after values point to notes of the source that are not given here.

How the values were obtained:
[1] = Survival of animals during the study; assay type: in vivo, rat
Experimental: (§1) Neuropathic pain was induced by intraperitoneal administration of Taxol at a dose level of 6 mg/kg on study days 0-6 and 12 mg/kg on study days 7-12. Following injection of Taxol animals experienced pain as was assessed using the von Frey test. The development of neuropathic pain was confirmed by measuring mechanical allodynia (Von Frey test) on study day 13 (for inclusion) and on study day 14 (1 hour and 2 hour post dosing) and 24 hour post first dosing.

[2] = Solubility of purified LR-90 in different vehicles; assay type: physicochemical; conditions: 20% HPβCD in pH 8.0 buffer (w/v); 5 or 10 mg/ml
[3] = Stability in acidic environment (simulated gastric fluid test), precipitation under polarized light microscope; assay type: physicochemical
Experimental: To test the stability in the acidic environment (simulated gastric fluid test) of 5 and 10 mg/ml of LR-90 in 20% HPβCD in pH 8.0 buffer, the two concentrations were added into the equal volume of pH 1.2 buffer, mixed completely, and then observed under a polarized light microscope.

[4] = Solubility of purified LR-90 in different vehicles; assay type: physicochemical
Experimental: In order to develop a vehicle formulation for LR-90 for use in humans, 15 different vehicles were tested to measure the solubility of the purified LR-90 (Table 6).

[5] = tested on: Taxol-induced neuropathic pain; assay: Von Frey test (mechanical allodynia) in Taxol induced model of neuropathic pain; assay type: in vivo, rat
Experimental: as §1
All data are presented as means±SEM. Each treatment group was compared to the Vehicle group using Two way ANOVA (for VF) followed by Tukey post-test (GraphPad). Vehicle group is compared to naïve group using T-test. A p value<0.05 is considered to represent a significant difference.
The response to tactile allodynia was evaluated using the Von Frey apparatus (Touch Test®). The rat was placed in an enclosure and positioned on a metal mesh surface, but allowed to move freely. A set of dull monofilaments provide an increasing force was applied on the animal plantar surface of the paw. The lowest force requires for animal paw withdrawal was recorded. Low force values recorded in this test indicate a painful state.

[6] = Pharmacokinetic study following a single oral administration; assay type: in vivo, Sprague-Dawley (SD) rats; conditions: in 20% HPβCD in pH 8.0 buffer; 50 mg/kg oral gavage; vs salt in water, 4% DMSO in corn oil, Ora-Blend SF
Experimental: Pharmacokinetic studies of four different formulations of LR-90 were investigated. LR-90 either in salt formulation dissolved in water, in 4% DMSO in corn oil, in 20% HPβCD in pH 8.0 buffer, and in Ora-Blend SF was delivered at a dose of 50 mg/kg by oral gavage in Sprague-Dawley (SD) rats. Blood samples were collected at 0 min, 15 min, 30 min, 1 hr, 2 hr, 4 hr, 8 hr, 24 hr and 48 hr post-dosing. LR-90 level was determined in plasma by LC-MS/MS assay.

Structure (SMILES): CC(C)(Oc1ccc(NC(=O)Nc2ccc(Cc3ccc(NC(=O)Nc4ccc(OC(C)(C)C(=O)O)cc4)c(Cl)c3)cc2Cl)cc1)C(=O)O [LR-90, methylene bis[4,4′-(2-chlorophenylureidophenoxyisobutyric acid)]]
- Survived Animals in % ([1]; 25 mg/kg PO, Group 6, Study Day 13): 100%
- Survived Animals in % ([1]; 25 mg/kg PO, Group 6, Study Day 14): 100%
- Survived Animals in % ([1]; 25 mg/kg PO, Group 6, Study Day 15): 100%
- Survived Animals in % ([1]; 25 mg/kg PO, Group 6, Study Day 16): 100%
- Survived Animals in % ([1]; 25 mg/kg PO, Group 6, Study Day 17): 100%
- Survived Animals in % ([1]; 25 mg/kg PO, Group 6, Study Day 18): 100%
- Survived Animals in % ([1]; 25 mg/kg PO, Group 6, Study Day 19): 100%
- Survived Animals in % ([1]; 25 mg/kg PO, Group 6, Study Day 20): 100%
- Survived Animals in % ([1]; 25 mg/kg PO, Group 6, Study Day 21): 100%
- Survived Animals in % ([1]; 25 mg/kg PO, Group 6, Study Day 22): 100%
- Survived Animals in % ([1]; 25 mg/kg PO, Group 6, Study Day 23): 100%
- Survived Animals in % ([1]; 25 mg/kg PO, Group 6, Study Day 24): 100%
- Survived Animals in % ([1]; 25 mg/kg PO, Group 6, Study Day 25): 75%
- Survived Animals in % ([1]; 25 mg/kg PO, Group 6, Study Day 28): 38%
- Survived Animals in % ([1]; 50 mg/kg PO, Group 5, Study Day 13): 100%
- Survived Animals in % ([1]; 50 mg/kg PO, Group 5, Study Day 14): 100%
- Survived Animals in % ([1]; 50 mg/kg PO, Group 5, Study Day 15): 100%
- Survived Animals in % ([1]; 50 mg/kg PO, Group 5, Study Day 16): 100%
- Survived Animals in % ([1]; 50 mg/kg PO, Group 5, Study Day 17): 100%
- Survived Animals in % ([1]; 50 mg/kg PO, Group 5, Study Day 18): 100%
- Survived Animals in % ([1]; 50 mg/kg PO, Group 5, Study Day 19): 100%
- Survived Animals in % ([1]; 50 mg/kg PO, Group 5, Study Day 20): 100%
- Survived Animals in % ([1]; 50 mg/kg PO, Group 5, Study Day 21): 100%
- Survived Animals in % ([1]; 50 mg/kg PO, Group 5, Study Day 22): 88%
- Survived Animals in % ([1]; 50 mg/kg PO, Group 5, Study Day 23): 88%
- Survived Animals in % ([1]; 50 mg/kg PO, Group 5, Study Day 24): 50%
- Survived Animals in % ([1]; 50 mg/kg PO, Group 5, Study Day 25): 50%
- Survived Animals in % ([1]; 50 mg/kg PO, Group 5, Study Day 28): 38%
- Survived Animals in % ([1]; 100 mg/kg PO, Group 4, Study Day 13): 100%
- Survived Animals in % ([1]; 100 mg/kg PO, Group 4, Study Day 14): 100%
- Survived Animals in % ([1]; 100 mg/kg PO, Group 4, Study Day 15): 100%
- Survived Animals in % ([1]; 100 mg/kg PO, Group 4, Study Day 16): 100%
- Survived Animals in % ([1]; 100 mg/kg PO, Group 4, Study Day 17): 100%
- Survived Animals in % ([1]; 100 mg/kg PO, Group 4, Study Day 18): 100%
- Survived Animals in % ([1]; 100 mg/kg PO, Group 4, Study Day 19): 100%
- Survived Animals in % ([1]; 100 mg/kg PO, Group 4, Study Day 20): 100%
- Survived Animals in % ([1]; 100 mg/kg PO, Group 4, Study Day 21): 100%
- Survived Animals in % ([1]; 100 mg/kg PO, Group 4, Study Day 22): 100%
- Survived Animals in % ([1]; 100 mg/kg PO, Group 4, Study Day 23): 88%
- Survived Animals in % ([1]; 100 mg/kg PO, Group 4, Study Day 24): 63%
- Survived Animals in % ([1]; 100 mg/kg PO, Group 4, Study Day 25): 38%
- Survived Animals in % ([1]; 100 mg/kg PO, Group 4, Study Day 28): 38%
- dissolution to a solution of the drug target concentration [2]: could be dissolved
- precipitation after mixing with equal volume of pH 1.2 buffer ([3]; 5 mg/ml LR-90 in 20% HPβCD in pH 8.0 buffer, after an hour): no precipitation
- precipitation after mixing with equal volume of pH 1.2 buffer ([3]; 10 mg/ml LR-90 in 20% HPβCD in pH 8.0 buffer, about 60 min): Very little precipitation
- Solubility ([4]; Media: 10% Kolliphor RH40 in water (W/V)): 1220 µg/mL (≈ 1.72 mM)
- Solubility ([4]; Media: 10% Solutol in water (W/V)): 1250 µg/mL (≈ 1.76 mM)
- Solubility ([4]; Media: 10% TPGS in water (W/V)): 560 µg/mL (≈ 0.789 mM)
- Solubility ([4]; Media: 20% Labsol tn water (W/V)): 1650 µg/mL (≈ 2.33 mM)
- Solubility ([4]; Media: 30% Captisol in water (W/V)): 1710 µg/mL (≈ 2.41 mM)
- Solubility ([4]; Media: 40% HPβCD in water (W/V)): 3660 µg/mL (≈ 5.16 mM)
- Solubility ([4]; Media: DMA): >531000 µg/mL
- Solubility ([4]; Media: DMSO): >258500 µg/mL
- Solubility ([4]; Media: EtOH): >4600 µg/mL
- Solubility ([4]; Media: PEG300): >16790 µg/mL
- Solubility ([4]; Media: PEG400): >10100 µg/mL
- Solubility ([4]; Media: PG): >2270 µg/mL
- Solubility ([4]; Media: pH 6.8): 1670 µg/mL (≈ 2.35 mM)
- Solubility ([4]; Media: pH 8): 7120 µg/mL (≈ 10 mM)
- effect on the sensitivity of the treated animals to mechanical stimulation ([5]; 25 mg/kg): No significant effect
- mean Von Frey force required for withdrawal ([5]; 25 mg/kg PO, Group 6, Baseline): 60.00 g
- mean Von Frey force required for withdrawal ([5]; 25 mg/kg PO, Group 6, Day 13 pre dosing): 9.81 g
- mean Von Frey force required for withdrawal ([5]; 25 mg/kg PO, Group 6, Day 14 1 hour post dosing): 21.88 g
- mean Von Frey force required for withdrawal ([5]; 25 mg/kg PO, Group 6, Day 14 2 hours post dosing): 17.31 g
- mean Von Frey force required for withdrawal ([5]; 25 mg/kg PO, Group 6, Day 15 24 hours post dosing): 14.13 g
- effect on the sensitivity of the treated animals to mechanical stimulation ([5]; 50 mg/kg): No significant effect
- mean Von Frey force required for withdrawal ([5]; 50 mg/kg PO, Group 5, Baseline): 60.00 g
- mean Von Frey force required for withdrawal ([5]; 50 mg/kg PO, Group 5, Day 13 pre dosing): 9.81 g
- mean Von Frey force required for withdrawal ([5]; 50 mg/kg PO, Group 5, Day 14 1 hour post dosing): 17.38 g
- mean Von Frey force required for withdrawal ([5]; 50 mg/kg PO, Group 5, Day 14 2 hours post dosing): 22.13 g
- mean Von Frey force required for withdrawal ([5]; 50 mg/kg PO, Group 5, Day 15 24 hours post dosing): 16.75 g
- mean Von Frey force required for withdrawal ([5]; 100 mg/kg PO, Group 4, Baseline): 57.88 g
- mean Von Frey force required for withdrawal ([5]; 100 mg/kg PO, Group 4, Day 13 pre dosing): 10.06 g
- mean Von Frey force required for withdrawal ([5]; 100 mg/kg PO, Group 4, Day 14 1 hour post dosing): 34.69**** g
- mean Von Frey force required for withdrawal ([5]; 100 mg/kg PO, Group 4, Day 14 2 hours post dosing): 32.56±7.56 g and 32.56*** g
- mean Von Frey force required for withdrawal ([5]; 100 mg/kg PO, Group 4, Day 15 24 hours post dosing): 26.25 g
- effect on neuropathic pain compared to the vehicle group (Von Frey test) ([5]; 100 mg/kg, Group 4, 1 hour and 2 hour post dosing on study day 14): statistically significantly reduced the neuropathic pain; also recorded: significantly effective in reducing neuropathic pain
- pharmacokinetics (plasma LR-90 level) compared with the three other formulations [6]: superior
